# Target: Cruzipain (Trypanosoma cruzi) (UniProt P25779)
# Assay: Second order rate constant for inhibition of cruzain
# Cruzipain (Trypanosoma cruzi), sequence (P25779 123-467 limits assumed): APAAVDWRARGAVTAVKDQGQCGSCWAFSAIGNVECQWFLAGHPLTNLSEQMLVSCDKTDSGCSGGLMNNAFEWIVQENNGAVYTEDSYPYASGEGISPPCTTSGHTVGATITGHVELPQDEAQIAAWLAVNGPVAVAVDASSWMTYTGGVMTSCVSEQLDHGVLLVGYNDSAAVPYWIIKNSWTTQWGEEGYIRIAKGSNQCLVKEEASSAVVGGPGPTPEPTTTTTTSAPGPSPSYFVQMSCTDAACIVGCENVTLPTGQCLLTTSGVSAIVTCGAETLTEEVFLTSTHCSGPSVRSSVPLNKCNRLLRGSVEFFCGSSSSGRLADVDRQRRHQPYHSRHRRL
row,K inact/Ki,Compound
1,70600 M⁻¹ s⁻¹,"CC(C)CCNC(=O)[C@H](CC(C)C)NC(=O)[C@H]1OC1C(=O)O (single isomer, unassigned)"
2,330000 M⁻¹ s⁻¹,O=C(N[C@@H](Cc1ccccc1)C(=O)N[C@@H](CCc1ccccc1)C(=O)[C@@H]1CO1)OCc1ccccc1
3,128000 M⁻¹ s⁻¹,C[C@H](NC(=O)[C@H](Cc1ccccc1)NC(=O)OCc1ccccc1)C(=O)[C@@H]1CO1

# Reference: ChEMBL document CHEMBL1130613, “Design and synthesis of dipeptidyl alpha',beta'-epoxy ketones, potent irreversible inhibitors of the cysteine protease cruzain” (Bioorg Med Chem Lett, 1998)
